Measurements from patent US8871728B2, “Non-peptide macrocyclic histone deacetylese (HDAC) inhibitors and methods of making and using thereof” (Georgia Tech Research Corporation, priority 2007, dated 2014).
Read-outs that look alike come from different tables or passages of the source.

Legend:
Assay in all cases: SAMDI mass spectrometry HDAC inhibition assay
Format in all cases: biochemical
[1] = target: HDAC8 (Homo sapiens (Human), UniProt Q9BY41); conditions: for inhibition at 10 µM: given if the IC50 was above 10 μM
Procedure: (§1) There is precedence that fluorescently labeled substrates can perturb enzyme activity and the effect of inhibitors. […] Additionally, 3-hydroxypyridine-2-ones are highly colored solids and might lead to false positive signals. Mindful of these facts, a label-free SAMDI (self-assembled monolayers for MALDI) mass spectrometry assay was also used to assess HDAC inhibition.
(§2) The SAMDI technique, wherein self-assembled monolayers (SAM) of alkanethiolates on gold are analyzed by matrix assisted laser desorption/ionization (MALDI) mass spectrometry, has been widely used to characterize many biochemical activities, including the deacetylase enzyme family.

[2] = target: HDAC1 (Homo sapiens (Human), UniProt Q13547); conditions: for HDAC1 inhibition in words / HDAC1 inhibition, symbol: SAMDI; for inhibition at 10 µM: given if the IC50 was above 10 μM
Procedure: as §1, §2

[3] = target: HDAC6 (Homo sapiens (Human), UniProt Q9UBN7); conditions: for HDAC6 inhibition in words / HDAC6 inhibition, symbol / IC50: SAMDI; for IC50: read-out: HDAC6 IC50; for inhibition at 10 µM: read-out: HDAC6 % inhibition
Procedure: as §1
as §2, with “family. The SAMDI assay was used to measure the inhibition constant (K1) of fragments against HDAC1, HDAC6 and HDAC8 using a previously identified preferred HDAC substrate.” for “family.”

[4] = SAMDI, read-out: HDAC8 activity (IC50)

Chain of HDAC1 (Q13547 whole entry): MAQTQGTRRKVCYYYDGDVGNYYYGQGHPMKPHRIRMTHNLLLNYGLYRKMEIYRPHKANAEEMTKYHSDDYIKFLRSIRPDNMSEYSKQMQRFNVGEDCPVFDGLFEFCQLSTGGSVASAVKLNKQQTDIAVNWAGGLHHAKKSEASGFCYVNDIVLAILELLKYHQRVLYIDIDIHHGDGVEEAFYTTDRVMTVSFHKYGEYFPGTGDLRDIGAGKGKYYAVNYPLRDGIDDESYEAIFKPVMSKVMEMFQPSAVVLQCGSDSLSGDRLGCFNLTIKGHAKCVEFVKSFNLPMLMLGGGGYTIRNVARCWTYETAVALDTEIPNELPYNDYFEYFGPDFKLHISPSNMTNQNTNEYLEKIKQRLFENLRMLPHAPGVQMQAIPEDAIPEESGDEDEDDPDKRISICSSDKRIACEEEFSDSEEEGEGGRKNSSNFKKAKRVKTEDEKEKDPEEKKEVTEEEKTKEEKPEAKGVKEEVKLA
Chain of HDAC6 (Q9UBN7 whole entry): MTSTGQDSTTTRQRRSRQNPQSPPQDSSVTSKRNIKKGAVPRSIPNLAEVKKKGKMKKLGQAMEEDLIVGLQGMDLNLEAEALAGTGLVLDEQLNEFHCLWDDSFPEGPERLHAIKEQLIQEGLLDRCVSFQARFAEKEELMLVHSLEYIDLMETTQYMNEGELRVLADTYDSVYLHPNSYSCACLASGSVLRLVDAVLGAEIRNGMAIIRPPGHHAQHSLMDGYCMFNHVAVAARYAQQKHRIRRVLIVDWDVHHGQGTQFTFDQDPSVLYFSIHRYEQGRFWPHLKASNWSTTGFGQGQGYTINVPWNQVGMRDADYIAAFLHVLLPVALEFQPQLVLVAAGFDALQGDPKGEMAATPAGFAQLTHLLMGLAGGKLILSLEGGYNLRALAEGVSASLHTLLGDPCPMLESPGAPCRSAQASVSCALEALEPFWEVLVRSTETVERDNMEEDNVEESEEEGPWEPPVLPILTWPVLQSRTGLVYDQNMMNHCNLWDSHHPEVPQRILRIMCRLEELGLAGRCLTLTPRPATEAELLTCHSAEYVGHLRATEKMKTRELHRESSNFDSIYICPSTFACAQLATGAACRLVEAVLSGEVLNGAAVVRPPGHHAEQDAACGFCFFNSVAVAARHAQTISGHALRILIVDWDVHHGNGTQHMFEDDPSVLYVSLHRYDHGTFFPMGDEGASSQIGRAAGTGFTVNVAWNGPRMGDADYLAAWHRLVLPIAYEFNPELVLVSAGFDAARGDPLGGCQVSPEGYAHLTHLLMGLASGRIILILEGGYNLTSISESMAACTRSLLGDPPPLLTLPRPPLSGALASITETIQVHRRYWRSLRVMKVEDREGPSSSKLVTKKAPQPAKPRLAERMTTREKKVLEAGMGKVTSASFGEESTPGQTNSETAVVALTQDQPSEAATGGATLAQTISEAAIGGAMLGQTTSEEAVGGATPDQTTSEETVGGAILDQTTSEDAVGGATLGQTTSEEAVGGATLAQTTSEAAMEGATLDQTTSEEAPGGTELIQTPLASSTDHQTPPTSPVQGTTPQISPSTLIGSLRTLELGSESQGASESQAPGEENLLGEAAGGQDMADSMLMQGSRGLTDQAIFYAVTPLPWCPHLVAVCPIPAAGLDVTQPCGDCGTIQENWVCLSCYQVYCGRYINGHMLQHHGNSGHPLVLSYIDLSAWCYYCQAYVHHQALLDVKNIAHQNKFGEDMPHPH
Chain of HDAC8 (Q9BY41 whole entry): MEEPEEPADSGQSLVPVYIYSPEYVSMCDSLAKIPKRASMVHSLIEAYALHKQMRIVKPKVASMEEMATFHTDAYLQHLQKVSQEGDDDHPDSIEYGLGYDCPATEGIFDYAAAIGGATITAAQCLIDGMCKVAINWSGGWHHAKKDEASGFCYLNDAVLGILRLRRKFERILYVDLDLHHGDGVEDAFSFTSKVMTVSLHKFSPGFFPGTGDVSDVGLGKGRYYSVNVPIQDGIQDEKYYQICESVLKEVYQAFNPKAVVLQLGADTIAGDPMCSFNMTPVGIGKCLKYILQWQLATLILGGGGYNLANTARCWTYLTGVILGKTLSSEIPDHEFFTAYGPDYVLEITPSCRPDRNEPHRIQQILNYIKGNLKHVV

SMILES	IC50 [3] [µM]	inhibition at 10 µM [1] [%]	HDAC1 inhibition, symbol [2]	HDAC6 inhibition, symbol [3]	also measured
O=c1[nH]cccc1O [3-hydroxypyridine-2-one, reference compound]			NI (No significant Inhibition (below 20% Inhibition))	NI (No significant Inhibition (below 20% Inhibition))	HDAC8 inhibition in words ([1]; SAMDI): inactive; HDAC8 inhibition, symbol ([1]; SAMDI): NI (No significant Inhibition (below 20% Inhibition)); HDAC1 inhibition in words [2]: inactive; HDAC6 inhibition in words [3]: inactive
Oc1ccc[nH]c1=S [3-hydroxypyridine-2-thione, reference compound]	0.681 ± 0.11		NI (No significant Inhibition (below 20% Inhibition))		HDAC8 inhibition in words ([1]; SAMDI): low micromolar IC50 values; IC50 ([1]; Table 14, read-out: HDAC 8 (nm)): 3.68 ± 1.2 µM; HDAC1 inhibition in words [2]: inactive; HDAC6 inhibition in words [3]: low micromolar IC50 values
Cn1cccc(O)c1=O [Compound 142a, 1-Methyl-3-hydroxypyridine-2-one]		8	NI (No significant Inhibition (below 20% Inhibition))	NI (No significant Inhibition (below 20% Inhibition))	
O=c1c(O)cccn1Cc1ccccc1 [Compound 142b, 1-Benzyl-3-hydroxypyridine-2-one]		8	NI (No significant Inhibition (below 20% Inhibition))	NI (No significant Inhibition (below 20% Inhibition))	
O=c1c(O)cccn1Cc1ccc(-c2ccccc2)cc1 [Compound 142c, 1-(1,1′-Biphenylmethyl)-3-hydroxypyridine-2-one]		8	NI (No significant Inhibition (below 20% Inhibition))	NI (No significant Inhibition (below 20% Inhibition))	
Oc1cccn(Cc2ccccc2)c1=S [Compound 144b, 1-Benzyl-3-hydroxypyridine-2-thione]	0.457 ± 0.027		NI (No significant Inhibition (below 20% Inhibition))		HDAC8 activity, fold superior compared to 144e ([1]; SAMDI): 2 fold; IC50 ([1]; SAMDI, read-out: HDAC8 IC50): 1.27 ± 0.2 µM
Oc1cccn(Cc2ccc(-c3ccccc3)cc2)c1=S [Compound 144c, 1-(1,1′-Biphenylmethyl)-3-hydroxypyridine-2-thione]	0.847 ± 0.188		NI (No significant Inhibition (below 20% Inhibition))		IC50 ([1]; SAMDI, read-out: HDAC8 IC50): 4.28 ± 1.55 µM
N#Cc1ccc(-c2ccc(Cn3cccc(O)c3=O)cc2)cc1 [Compound 148a]		16	NI (No significant Inhibition (below 20% Inhibition))	NI (No significant Inhibition (below 20% Inhibition))	
N#Cc1cccc(-c2ccc(Cn3cccc(O)c3=O)cc2)c1 [Compound 148b, 1-(3-Cyano-(1,1′-biphenylmethyl))-3-hydroxyoxypyridine-2-one]		9	NI (No significant Inhibition (below 20% Inhibition))	NI (No significant Inhibition (below 20% Inhibition))	
N#Cc1ccccc1-c1ccc(Cn2cccc(O)c2=O)cc1 [Compound 148c, 1-(2-Cyano-(1,1′-biphenylmethyl))-3-hydroxyoxypyridine-2-one]		9	NI (No significant Inhibition (below 20% Inhibition))		inhibition at 10 µM [3]: 5%
Cc1ccc(-c2ccc(Cn3cccc(O)c3=O)cc2)cc1 [Compound 148d, 1-(4-Methyl-(1,1′-biphenylmethyl))-3-hydroxyoxypyridine-2-one]		25	NI (No significant Inhibition (below 20% Inhibition))	NI (No significant Inhibition (below 20% Inhibition))	
Cc1cccc(-c2ccc(Cn3cccc(O)c3=O)cc2)c1 [Compound 148e, 1-(3-Methyl-(1,1′-biphenylmethyl))-3-hydroxyoxypyridine-2-one]			NI (No significant Inhibition (below 20% Inhibition))	NI (No significant Inhibition (below 20% Inhibition))	HDAC8 inhibition, symbol ([1]; SAMDI): NI (No significant Inhibition (below 20% Inhibition))
Cc1ccccc1-c1ccc(Cn2cccc(O)c2=O)cc1 [Compound 148f, 1-(2-Methyl-(1,1′-biphenylmethyl))-3-hydroxyoxypyridine-2-one]		9	NI (No significant Inhibition (below 20% Inhibition))	NI (No significant Inhibition (below 20% Inhibition))	
CN(C)c1ccc(-c2ccc(Cn3cccc(O)c3=O)cc2)cc1 [Compound 148g, 1-(4-Dimethylamino-(1,1′-biphenylmethyl))-3-hydroxyoxypyridine-2-one]		35	NI (No significant Inhibition (below 20% Inhibition))		inhibition at 10 µM [3]: 11%
CN(C)c1ccc(-c2ccc(Cn3cccc(O)c3=O)cc2)cn1 [Compound 148h]		37	NI (No significant Inhibition (below 20% Inhibition))	NI (No significant Inhibition (below 20% Inhibition))	
O=c1c(O)cccn1Cc1ccc(-c2ccncc2)cc1 [Compound 148i, 1-(4-(Pyridine-4-yl)benzyl)-3-hydroxypyridine-2-one]		16	NI (No significant Inhibition (below 20% Inhibition))	NI (No significant Inhibition (below 20% Inhibition))	
N#Cc1cccc(-c2ccc(Cn3cccc(O)c3=S)cc2)c1 [Compound 149b, 1-(3-Cyano-(1,1′-biphenylmethyl))-3-hydroxyoxypyridine-2-thione]			NI (No significant Inhibition (below 20% Inhibition))		IC50 ([1]; SAMDI, read-out: HDAC8 IC50): 1.7 ± 0.717 µM; IC50 [1, 4]: ~2 µM; inhibition at 10 µM [3]: 44%
Oc1cccn(CCCCCCn2cc(-c3ccccc3)nn2)c1=S [Compound 162e, 1-Phenyltriazolylhexyl-3-hydroxypyridine-2-thione]					inhibition at 10 µM [2]: 23%; inhibition at 10 µM [3]: 22%
Cc1ccc(-c2cn(CCCCCn3cccc(O)c3=S)nn2)cc1 [Compound 167a, 1-(4-Tolyl)triazolylpentyl-3-hydroxypyridine-2-thione]					inhibition at 10 µM [2]: 31%
Cc1cccc(-c2cn(CCCCCn3cccc(O)c3=S)nn2)c1 [Compound 167b, 1-(3-Tolyl)triazolylpentyl-3-hydroxypyridine-2-thione]					inhibition at 10 µM [2]: 19%

Second part, led by results:

IC50 [3] [µM]	inhibition at 10 µM [1] [%]	SMILES	HDAC1 inhibition, symbol [2]	HDAC6 inhibition, symbol [3]	also measured
0.957 ± 0.159		N#Cc1ccc(-c2ccc(Cn3cccc(O)c3=S)cc2)cc1 [Compound 149a, 1-(4-Cyano-(1,1′-biphenylmethyl))-3-hydroxyoxypyridine-2-thione]	NI (No significant Inhibition (below 20% Inhibition))		IC50 ([1]; SAMDI, read-out: HDAC8 IC50): 2.08 ± 0.459 µM; IC50 [1, 4]: ~2 µM
0.454 ± 0.042		Cc1ccc(-c2ccc(Cn3cccc(O)c3=S)cc2)cc1 [Compound 149d, 1-(4-Methyl-(1,1′-biphenylmethyl))-3-hydroxyoxypyridine-2-thione]	NI (No significant Inhibition (below 20% Inhibition))		IC50 ([1]; SAMDI, read-out: HDAC8 IC50): 0.8 ± 0.304 µM
0.812 ± 0.286		Cc1cccc(-c2ccc(Cn3cccc(O)c3=S)cc2)c1 [Compound 149e, 1-(3-Methyl-(1,1′-biphenylmethyl))-3-hydroxyoxypyridine-2-thione]	NI (No significant Inhibition (below 20% Inhibition))		IC50 ([1]; SAMDI, read-out: HDAC8 IC50): 2.5 ± 1.18 µM
2.39 ± 0.458	34	CN(C)c1ccc(-c2ccc(Cn3cccc(O)c3=S)cc2)cn1 [Compound 149h]	NI (No significant Inhibition (below 20% Inhibition))		
2.2 ± 0.355		Oc1cccn(Cc2ccc(-c3ccncc3)cc2)c1=S [Compound 149i, 1-(4-(Pyridin-4-yl)benzyl)-3-hydroxypyridine-2-thione]	NI (No significant Inhibition (below 20% Inhibition))		IC50 ([1]; SAMDI, read-out: HDAC8 IC50): 2.78 ± 0.323 µM
	17	O=c1c(O)cccn1Cc1cn(-c2ccccc2)nn1 [Compound 152a, 1-Phenyltriazolylmethyl-3-hydroxypyridine-2-one]	NI (No significant Inhibition (below 20% Inhibition))	NI (No significant Inhibition (below 20% Inhibition))	
	8	CN(C)c1ccc(-n2cc(Cn3cccc(O)c3=O)nn2)cc1 [Compound 152b, 1-(4-Dimethylamino)phenylltriazolylmethyl-3-hydroxypyridine-2-one]	NI (No significant Inhibition (below 20% Inhibition))	NI (No significant Inhibition (below 20% Inhibition))	
1.02 ± 0.099		CN(C)c1ccc(-n2cc(Cn3cccc(O)c3=S)nn2)cc1 [Compound 154b, 1-(4-Dimethylamino)phenylltriazolylmethyl-3-hydroxypyridine-2-thione]	NI (No significant Inhibition (below 20% Inhibition))		IC50 ([1]; SAMDI, read-out: HDAC8 IC50): 1.87 ± 0.723 µM
	63	Oc1cccn(CCCn2cc(-c3ccccc3)nn2)c1=S [Compound 162b, 1-Phenyltriazolylpropyl-3-hydroxypyridine-2-thione]			inhibition at 10 µM [2]: 27%
	4	Cc1ccccc1-c1cn(CCCCCn2cccc(O)c2=O)nn1 [Compound 166c, 1-(2-Tolyl)triazolylpentyl-3-hydroxypyridine-2-one]		NI (No significant Inhibition (below 20% Inhibition))	
